This note sets out measurements from ChEMBL document CHEMBL4321883 (J Med Chem, 2020).

For data set [1], the system named is Mus musculus. The data set can be described thus: Antihyperlipidemic activity in C57BL/6 mouse assessed as increase in HDL-C level at 50 mg/kg, ip qd administered as nanosuspension for 2 days measured 6 hrs post-last dose by LC-MS/MS analysis relative to control. Format: functional.
Data set [2] can be described thus: Plasma concentration in C57BL/6 mouse at 50 mg/kg, ip administered as nanosuspension measured after 24 hrs by LC-MS/MS analysis. The class given is ADME, organism-based.
In data set [3] the target is T1, Hepatic triacylglycerol lipase (Homo sapiens, UniProt P11150).
T1 sequence (P11150 whole entry): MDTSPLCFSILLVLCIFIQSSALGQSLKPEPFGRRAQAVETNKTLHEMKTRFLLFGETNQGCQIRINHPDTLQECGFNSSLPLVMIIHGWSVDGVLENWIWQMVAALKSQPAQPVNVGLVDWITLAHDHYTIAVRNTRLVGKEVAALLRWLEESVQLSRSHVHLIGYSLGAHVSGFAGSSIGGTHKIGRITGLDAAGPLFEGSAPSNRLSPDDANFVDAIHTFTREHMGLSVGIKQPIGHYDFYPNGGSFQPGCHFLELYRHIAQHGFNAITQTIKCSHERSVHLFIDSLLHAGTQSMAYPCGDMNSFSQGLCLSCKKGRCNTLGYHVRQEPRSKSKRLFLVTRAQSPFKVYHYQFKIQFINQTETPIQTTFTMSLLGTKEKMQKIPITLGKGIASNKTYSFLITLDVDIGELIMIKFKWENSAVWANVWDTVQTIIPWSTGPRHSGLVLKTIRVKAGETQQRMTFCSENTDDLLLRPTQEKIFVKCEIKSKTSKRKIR
The data set can be described thus: Inhibition of human HL […] using A10070 as substrate preincubated for 20 min followed by DMPG vesicle doped substrate addition and measured at 20 secs interval for 10 mins by fluorescence assay. Format: cell-based.

Data set [4] is described as follows: Metabolic stability in mouse liver microsomes assessed as compound remaining at 0.5 uM incubated for 10 mins. Format: ADME, Microsome. To be noted: read-out: Stability. Background: Microsomes from liver hold many membrane-bound enzymes, among them those of drug oxidation.
The nature of data set [5]: Metabolic stability in human liver microsomes assessed as compound remaining at 0.5 uM incubated for 10 mins. To be noted: read-out: Stability. Format: ADME, Microsome.
Data set [6] addresses T2, Endothelial lipase (Mus musculus, UniProt Q9WVG5).
T2 sequence (Q9WVG5 whole entry): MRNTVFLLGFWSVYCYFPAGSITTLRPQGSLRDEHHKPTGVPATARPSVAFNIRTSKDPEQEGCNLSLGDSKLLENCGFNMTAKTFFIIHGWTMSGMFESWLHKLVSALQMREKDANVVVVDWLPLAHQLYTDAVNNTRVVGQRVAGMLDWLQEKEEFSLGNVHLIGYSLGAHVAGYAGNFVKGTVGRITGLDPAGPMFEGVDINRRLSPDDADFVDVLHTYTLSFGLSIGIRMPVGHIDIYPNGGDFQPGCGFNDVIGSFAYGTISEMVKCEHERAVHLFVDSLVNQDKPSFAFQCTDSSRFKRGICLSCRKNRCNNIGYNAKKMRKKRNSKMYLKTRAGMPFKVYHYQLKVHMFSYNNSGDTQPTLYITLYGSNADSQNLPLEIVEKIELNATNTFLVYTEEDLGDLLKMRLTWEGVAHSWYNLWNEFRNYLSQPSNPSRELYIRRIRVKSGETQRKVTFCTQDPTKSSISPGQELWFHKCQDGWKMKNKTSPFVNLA
Put plainly: Inhibition of endothelial lipase in hepatic lipase knock-out mouse plasma. The class given is cell-free.

Data set [7] deals with T3, Endothelial lipase (Homo sapiens, UniProt Q9Y5X9).
T3 sequence (Q9Y5X9 whole entry): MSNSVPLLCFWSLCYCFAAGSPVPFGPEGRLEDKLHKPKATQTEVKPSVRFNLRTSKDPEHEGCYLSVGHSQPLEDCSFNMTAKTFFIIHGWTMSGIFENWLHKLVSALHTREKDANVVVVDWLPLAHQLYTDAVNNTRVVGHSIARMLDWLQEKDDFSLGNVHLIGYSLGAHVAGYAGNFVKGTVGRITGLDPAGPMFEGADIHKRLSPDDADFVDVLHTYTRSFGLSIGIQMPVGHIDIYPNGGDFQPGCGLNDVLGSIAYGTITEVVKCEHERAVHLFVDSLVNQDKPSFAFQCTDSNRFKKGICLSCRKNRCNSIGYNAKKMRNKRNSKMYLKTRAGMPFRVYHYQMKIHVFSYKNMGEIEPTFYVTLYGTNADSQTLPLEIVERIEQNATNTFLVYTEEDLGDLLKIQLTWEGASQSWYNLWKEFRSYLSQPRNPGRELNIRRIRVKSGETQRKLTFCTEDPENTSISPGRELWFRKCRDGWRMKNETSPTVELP
Put plainly: Inhibition of EL in human HT1080 cells using A10070 as substrate preincubated for 20 min followed by DMPG vesicle doped substrate addition and measured at 20 secs interval for 10 mins by fluorescence assay. The class given is cell-based.

Data set [8] concerns the target T3, Endothelial lipase. Put plainly: Inhibition of EL in human HT1080 cells using D31-POPC-HDL as substrate incubated for 2 hrs in presence of human serum by LC/MS analysis. Format: cell-based.
Data set [9] addresses T3, Endothelial lipase. The data set can be described thus: Inhibition of EL in human HT1080 cells using D31-POPC-HDL as substrate incubated for 2 hrs in presence of mouse plasma by LC/MS analysis. The class given is cell-based.
Data set [10] is described as follows: Cmax in C57BL/6 mouse at 50 mg/kg, ip administered as nanosuspension measured after 24 hrs by LC-MS/MS analysis. Format: ADME, organism-based. Details: dose 50 mg/kg, route intraperitoneal. The conditions noted are these: in vivo.
The nature of data set [11]: AUC (0 to 24 hrs) in C57BL/6 mouse at 50 mg/kg, ip administered as nanosuspension measured after 24 hrs by LC-MS/MS analysis. Format: ADME, organism-based. More on the design: dose 50 mg/kg, time < 24 hr, route intraperitoneal. To be noted: in vivo.
The species named for another data set is Homo sapiens. Put plainly: Selectivity index, ratio of IC50 for human HL expressed in […] cells to IC50 for EL in human HT1080 cells. The class given is cell-based.
Data set [12] in a line: Metabolic stability in rat liver microsomes assessed as compound remaining at 0.5 uM incubated for 10 mins. Format: ADME, Microsome. The conditions noted are these: read-out: Stability.
Data set [13] concerns Mus musculus. Put plainly: Antihyperlipidemic activity in hCETP/apoB-100 dual transgenic C57BL/6 mouse assessed as effect on LDL-C level at 50 mg/kg, ip bid administered as nanosuspension for 2 days measured 6 hrs post-last dose by FPLC analysis. The class given is functional, organism-based.
The test system of data set [14] is Mus musculus. The data set can be described thus: Antihyperlipidemic activity in hCETP/apoB-100 dual transgenic C57BL/6 mouse assessed as increase in HDL-C level at 50 mg/kg, ip bid administered as nanosuspension for 2 days measured 6 hrs post-last dose by FPLC analysis relative to control. Format: functional.
The subject of data set [15] is Mus musculus. Put plainly: Antihyperlipidemic activity in HL knock out C57BL/6 mouse assessed as increase in HDL-C level at 50 mg/kg, ip qd administered as nanosuspension for 2 days measured 6 hrs post-last dose by LC-MS/MS analysis relative to control. The class given is functional.
Data set [16] can be described thus: Plasma concentration in C57BL/6 mouse at 50 mg/kg, sc measured after 24 hrs by LC-MS/MS analysis. The class given is ADME, organism-based.
Data set [17] in a line: Plasma concentration in EL knock out C57BL/6 mouse at 50 mg/kg, ip qd administered as nanosuspension for 2 days measured 6 hrs post-last dose by LC-MS/MS analysis. The class given is ADME, organism-based.
A short description of data set [18]: Plasma concentration in C57BL/6 mouse at 50 mg/kg, po measured after 24 hrs by LC-MS/MS analysis. The class given is ADME, organism-based.
Data set [19] in a line: Plasma concentration in C57BL/6 mouse at 50 mg/kg, ip qd administered as nanosuspension for 2 days measured 6 hrs post-last dose by LC-MS/MS analysis. The class given is ADME, organism-based.
In data set [20] the test system is Mus musculus. The data set can be described thus: Antihyperlipidemic activity in EL knock out C57BL/6 mouse assessed as increase in HDL-C level at 50 mg/kg, ip qd administered as nanosuspension for 2 days measured 6 hrs post-last dose by LC-MS/MS analysis relative to control. Format: functional, organism-based.
Data set [21] concerns Mus musculus. The data set can be described thus: Induction of macrophage-mediated [3H]-cholesterol efflux in C57BL/6 mouse at 50 mg/kg, ip qd administered as nanosuspension for 3 days followed by [3H]-cholesterol addition on day 3 and measured after 2.5 hrs relative to control. The class given is functional.
Data set [22] in a line: Plasma concentration in HL knock out C57BL/6 mouse at 50 mg/kg, ip qd administered as nanosuspension for 2 days measured 6 hrs post-last dose by LC-MS/MS analysis. The class given is ADME, organism-based.

Structures are written as SMILES. The source made the active and inactive calls. The rule behind the calls is not given here.

As to `NS(=O)(=O)NCc1nnc(C(=O)c2nc3cc(-c4ccc5c(c4)CNC5=O)c(F)cc3s2)o1`, in the data set with Mus musculus [1], the Activity is reported as 36.9 - 37%. This molecule registered a concentration at 24 h in data set [2] of 460 nM.

Turning to `NS(=O)(=O)NCc1nnc(C(=O)c2nc3cc(-c4ccc(C(=O)NCC(F)(F)F)cc4)c(F)cc3s2)o1`, the IC50 (usually the concentration that inhibits the measured activity by half) was 4 nM in [3], 200 nM at Endothelial lipase [6], less than 0.5 nM on Endothelial lipase [7] and 200 nM on Endothelial lipase [8]. The remaining at 10 min, 0.5 µM in [4] turned out to be 100%; in data set [5] it was 98%.

For `CN(Cc1nnc(C(=O)c2nc3ccc(-c4ccccc4)cc3s2)o1)S(N)(=O)=O`, the half-maximal inhibitory concentration (IC50) in data set [3] is 3 nM; on Endothelial lipase [9], 1000 nM; at Endothelial lipase [7], 20 nM; at Endothelial lipase [8] it was 7000 nM.

Take `NC(=O)NCc1nnc(C(=O)c2nc3ccc(-c4ccccc4)cc3s2)o1`: the IC50 in [3] was greater than 10 nM; at Endothelial lipase [9], 1000 nM; against Endothelial lipase [7], 30 nM; at Endothelial lipase [8], 1000 nM.

On to `NS(=O)(=O)NCc1nnc(C(=O)c2nc3cc(F)c(C(=O)NCC(F)(F)F)cc3s2)o1`, for which the IC50 is 4 nM in data set [3], 200 nM against Endothelial lipase [6], less than 0.5 nM against Endothelial lipase [7] and 50 nM at Endothelial lipase [8]. Moreover, the remaining at 10 min, 0.5 µM in data set [4] was greater than 80%; in data set [5] it was 87%; in data set [12], greater than 80%. For the same molecule, the Activity in the data set on Mus musculus [1] is 37.8 - 38%. The Cmax (in general, the peak of the concentration-time curve) in data set [10] turned out to be 7.1 µM. Further, the AUC(0-t) – broadly, exposure summed from dosing to a finite time, without extrapolation to infinity – at 24 h in data set [11] was 58 µM·h. Also, the concentration at 24 h in data set [2] stood at 250 nM. Also, in the data set listed under Homo sapiens, the Ratio IC50 is 8.

Take `NS(=O)(=O)NCc1nnc(C(=O)c2nc3ccc(-c4ccccc4)cc3s2)o1`: the result in the data set on Mus musculus [13] and with Mus musculus [20] was inactive. For the same molecule, the Activity in the data set on Mus musculus [1] was 56%; in the data set on Mus musculus [14] it was 36%; with Mus musculus [15] it was 31.7 - 32%; in the data set on Mus musculus [21], 53%. For the same molecule, the concentration at 24 h in [16] is 190 nM; in data set [18], 250 nM; in data set [2], 500 nM. Further, the concentration at 6 h in data set [17] amounted to 8.5 µM; in [19], 520 nM; in data set [22], 11 µM.
